Patent US6693118B2, “Use of 4-substituted tetrahydropyridines for the manufacture of medicaments acting upon TGF-β1” (Sanofi-Synthelabo, priority 1997, dated 2004)

How the values were obtained:
Assay type in all cases: cell-based
[1] = test system: smooth muscle cells isolated from the human aorta; experiment: Anti-apoptotic effect, apoptosis induced by vincristine (oligonucleosome ELISA); conditions: Vincristin 0.1 pg/ml to 10 ng/ml; after 24 hours of contact with the cells
Description: (§1) The anti-apoptotic activity was measured on the same cells vis-à-vis the pro-apoptotic activity of a deprivation in serum or after the addition of toxic compounds such as vincristine or growth factors such as nerve growth factor (NGF) with the aid of a specific ELISA (enzyme-linked immunosorbent assay) determination kit which detects the presence of oligonucleosomes the presence of which inside the cells is a specific marker of programmed cell death (apoptosis), according to the method described by Del Bino G. et al., (Experimental Cell Research, 193, 27, 1991 and 195, 485, 1991) or Darzynkiewicz A et al., (Cytometry, 13, 795, 1992).
(§2) 40,000 smooth muscle cells isolated from the human aorta (supplier: CLONETICS) are placed, in a […], in a medium containing 2 ml of DMEM (Dulbecco Modified Eagle Medium containing 4.5 g/l of glucose, 3.7 g/l of NaHCO3 and not containing any L-glutamine or Na-pyruvate). 20% v/v of foetal calf serum which was desupplemented for 30 min at […] , 4 mM L-glutamine, 50 U/ml of penicillin and 50 μg/ml of streptomycin are added. The cells are left in this medium for a growth period of three days before submitting them to tests according to the examples given further on.
(§3) Dishes containing the cells are prepared as in PREPARATION 1. Apoptosis is induced by three different methods:
c) by adding increasing doses of Vincristin (0.1 pg/ml to 10 ng/ml) to the medium described in PREPARATION 1.
(§4) By an ELISA determination test of the mono- and oligo-nucleosomes associated with cytoplasmic histones after washing and cellular lysis, the effects of the compounds of the invention upon the apoptosis are measured after 24 hours of contact with the cells in comparison with the levels of apoptosis obtained in the absence of products (maximum apoptosis level) or in the presence of 20% foetal calf serum (minimum apoptosis level).
Dishes containing cells are prepared as described in PREPARATION 1. Apoptosis is induced according to method c) of PREPARATION 4. The levels of apoptosis are measured after 24 hours of contact with the cells by the method described in PREPARATION 4; the same controls as in PREPARATION 4 are used.

TGF-β1 = experiment: Levels of latent and activated TGF-β1 in extracellular media of smooth muscle cell cultures (ELISA); conditions: human aortic smooth muscle cells, 0.2% foetal calf serum; after 14 hours of contact with the cells
Description: The effect of the compounds of formula (I) upon the increase of the levels of TGF-β1 was evaluated with the aid of tests upon the smooth muscle cells, as well as upon the blood levels and the diaphragms in the rat after administration of the representative compounds of the invention.
Both latent TGF-β1 and activated TGF-β1 were determined on the smooth muscle cells by incubation with hydrochloric acid.
40,000 smooth muscle cells isolated from the human aorta (supplier: CLONETICS) are placed, in a […], in a medium containing 2 ml of DMEM (Dulbecco Modified Eagle Medium containing 4.5 g/l of glucose, 3.7 g/l of NaHCO3 and not containing any L-glutamine or Na-pyruvate). […]
Dishes containing cells are prepared as described in Preparation 1. […] The activated TGF-β1 is determined directly in the supernatants of the culture, but the latent TGF-β1 is determined after activation. […]
Dishes containing cells are prepared as in PREPARATION 1. The levels of TGF-β1 are measured as described in PREPARATION 2. The levels of activated TGF-β1 are measured in the extracellular media in the presence of SR 57746A after 1, 3, 14, 24 and 48 hours and 7 days of contact with the cells, in comparison with the controls (0.2% foetal calf serum and 20% foetal calf serum) by the method described in PREPARATION 2.

[2] = test system: smooth muscle cells isolated from the human aorta; experiment: Anti-apoptotic effect, apoptosis induced by NGF (oligonucleosome ELISA); conditions: NGF 0.01 ng/ml to 100 ng/ml; after 24 hours of contact with the cells
Description: as §1, §2, §3
b) by adding increasing doses of NGF (0.01 ng/ml to 100 ng/ml) to the medium described in PREPARATION 1;
as §4
Dishes containing cells are prepared as in PREPARATION 1. Apoptosis is induced according to method b) of PREPARATION 4. The apoptosis levels are measured after 24 hours of contact with the cells by the method described in PREPARATION 4; the same controls as in PREPARATION 4 are used.

Row | Compound | pro-apoptotic effect of vincristine [1] | levels of activated TGF-β1 in the extracellular media (TGF-β1) | pro-apoptotic effect of NGF [2]
1 | FC(F)(F)c1cccc(C2=CCN(CCc3ccc4ccccc4c3)CC2)c1 [SR 57746, 1-(2-naphth-2-ylethyl)-4-(3-trifluoromethylphenyl)-1,2,3,6-tetrahydropyridine] | significantly inhibit | significant increase | significantly inhibit
2 | CCc1ccc(CCN2CC=C(c3cccc(C(F)(F)F)c3)CC2)cc1CC [compound A, 1-[2-(3,4-diethylphenyl)ethyl]-4-(3-trifluoromethylphenyl)-1,2,3,6-tetrahydropyridine] | significantly inhibit | – | significantly inhibit
3 | O=C(CN1CC=C(c2cccc(C(F)(F)F)c2)CC1)c1ccc(-c2ccccc2)cc1 [compound B, 1-[2-(biphenyl-4-yl)-2-oxoethyl]-4-(3-trifluoromethylphenyl)-1,2,3,6-tetrahydropyridine] | significantly inhibit | – | significantly inhibit
4 | FC(F)(F)c1cccc(C2=CCN(CCc3ccc(-c4ccccc4)cc3)CC2)c1 [compound C, 1-[2-(biphenyl-4-yl)ethyl]-4-(3-trifluoromethylphenyl)-1,2,3,6-tetrahydropyridine] | significantly inhibit | – | significantly inhibit
5 | FC(F)(F)c1cccc(C2=CCN(CCc3ccc4cc5c(cc4c3)OCO5)CC2)c1 [compound D, 1-[2-(6,7-methylenedioxynaphth-2-yl)ethyl]-4-(3-trifluoromethylphenyl)-1,2,3,6-tetrahydropyridine] | significantly inhibit | – | significantly inhibit
6 | FC(F)(F)c1cccc(C2=CCN(CCc3ccc(C4=CCCCC4)cc3)CC2)c1 [compound E, 1-[2-(4-cyclohexenylphenyl)ethyl]-4-(3-trifluoromethylphenyl)-1,2,3,6-tetrahydropyridine] | significantly inhibit | – | significantly inhibit
7 | FC(F)(F)c1ccccc1C1=CCN(CCc2ccc(-c3ccccc3)cc2)CC1 [compound F, 1-[2-(biphenyl-4-yl)ethyl]-4-(2-trifluoromethylphenyl)-1,2,3,6-tetrahydropyridine] | significantly inhibit | – | significantly inhibit
